# From ChEMBL document CHEMBL5608141, “Identification of compartment-specific drug sensitivities in CRC organoid-stroma co-cultures” (2024)
# What was measured:
# Format in all cases: functional, Homo sapiens
# Parameters in all cases: dose or concentration left out as unconfirmed
# Colon cancer organoid [1] = experiment: Identification of compartment-specific drug sensitivities in O06 CRC organoid-stroma F06 CAF co-cultures. Organoid is transduced with Lucferase2-P2A-EGFP lentivirus, fibroblast with Renilla-dsRed lentivirus. Dual-Glo Luciferase assay is used to report viability data.
# Colon cancer organoid [2] = experiment: Identification of compartment-specific drug sensitivities in O14 CRC organoid-stroma F14 CAF co-cultures. Organoid is transduced with Lucferase2-P2A-EGFP lentivirus, fibroblast with Renilla-dsRed lentivirus. Dual-Glo Luciferase assay is used to report viability data.
# Colon cancer organoid [3] = experiment: Identification of compartment-specific drug sensitivities in O20 CRC organoid-stroma F20 CAF co-cultures. Organoid is transduced with Lucferase2-P2A-EGFP lentivirus, fibroblast with Renilla-dsRed lentivirus. Dual-Glo Luciferase assay is used to report viability data.
# [4] = Transduced with Lucferase2-P2A-EGFP lentivirus
# [5] = Transduced with Renilla-dsRed lentivirus
Compound,Cell Viability (Colon cancer organoid [1]; [4]),Cell Viability (Colon cancer organoid [1]; [5]),Cell Viability (Colon cancer organoid [2]; [4]),Cell Viability (Colon cancer organoid [2]; [5]),Cell Viability (Colon cancer organoid [3]; [4]),Cell Viability (Colon cancer organoid [3]; [5])
CC[C@@H]1C(=O)N(C)c2cnc(Nc3ccc(C(=O)NC4CCN(C)CC4)cc3OC)nc2N1C1CCCC1 [BI-2536],3.341%,324.743%,2.9466%,167.188%,3.721%,168.723%
CN(C)C(=O)c1sc2nc(N3CCC(S(C)(=O)=O)CC3)cc(C(F)(F)F)c2c1N [BI-5026],108.851%,103.89%,89.1429%,109.835%,83.1119%,112.021%
CCC(F)(F)c1cc(N2CCC(S(C)(=O)=O)CC2)nc2sc(C(N)=O)c(N)c12 [BI-605906],93.6384%,92.3898%,95.5116%,75.9837%,180.529%,81.0914%
CCOc1ccn(-c2ccc(F)cc2)c(=O)c1C(=O)Nc1ccc(Oc2ccnc(N)c2Cl)c(F)c1 [BMS-777607],91.8113%,94.0587%,88.1625%,100.395%,100.48%,72.8578%
O=c1nc(-c2ccccn2)sc2ccccc12 [BTZO-1],109.998%,128.099%,117.78%,105.233%,113.092%,104.485%
O=C1NC(c2ccccn2)Sc2ccccc21 (stereo not given) [BTZO-4],80.8326%,70.0316%,106.577%,104.892%,109.35%,85.8309%
C=CC(=O)Nc1ccc2[nH]c(=O)n(C3CCN(Cc4ccc(-c5nc6cc[nH]c(=O)c6cc5-c5ccccc5)cc4)CC3)c2c1 [Borussertib],51.8578%,132.383%,60.6786%,71.4907%,47.6492%,149.193%
O=C(NOCC1CC1)c1ccc(F)c(F)c1Nc1ccc(I)cc1Cl [CI-1040],38.2974%,73.8424%,35.7635%,62.5859%,44.1491%,195.336%
O=C(c1ccc(F)c(F)c1Nc1ccc(I)cc1F)N1CC(O)([C@@H]2CCCCN2)C1 [COBIMETINIB],5.143%,42.4292%,13.8076%,23.8651%,4.065%,77.761%
COc1c(OCCCN2CCOCC2)ccc2c1N=C(NC(=O)c1cnc(N)nc1)N1CCN=C21 [COPANLISIB],1.487%,40.0213%,8.823%,38.6713%,2.299%,117.524%
COCC(=O)NC/C=C/c1ccc2ncnc(Nc3ccc(Oc4ccc(C)nc4)c(C)c3)c2c1 [CP-724714],64.178%,58.1065%,105.334%,107.19%,97.2693%,94.0282%
CN([C@@H]1CCc2c(CC(=O)O)c3cc(S(C)(=O)=O)ccc3n2C1)S(=O)(=O)c1ccc(F)cc1 [CRTH2-negative-control],78.3965%,74.5251%,107.65%,94.275%,107.561%,126.69%
CNC(=O)c1ccc(Nc2ncc(C(F)(F)F)c(NCc3nccnc3N(C)S(C)(=O)=O)n2)cc1 [DEFACTINIB],119.668%,427.019%,78.9872%,82.2867%,57.0475%,79.7534%
CCN(CCO)CCCOc1ccc2c(Nc3cc(CC(=O)Nc4cccc(F)c4)[nH]n3)ncnc2c1 [DEFOSBARASERTIB],9.138%,166.163%,12.9014%,101.396%,5.365%,225.013%
Cn1c(C2(NC(=O)c3ccc4c(C5CCCC5)c(-c5ncc(Br)cn5)n(C)c4c3)CCC2)nc2ccc(/C=C/C(=O)O)cc21 [DELEOBUVIR],117.892%,131.89%,99.2157%,60.0807%,79.9036%,130.288%
